Results on six compounds are retold here after paper PMC5095173, “Disulfide-activated protein kinase G Iα regulates cardiac diastolic relaxation and fine-tunes the Frank–Starling response” (Nature Communications, 2016).

One assay relates to WT PKGIα. As to the kind of experiment: Oxidation of recombinant WT PKGIα to disulfide dimer (SDS-PAGE). Conditions: 10 mM lipoic acid, 2 h on ice; confirmed by SDS-PAGE. The class given is biochemical, human. The procedure:
A pCDNA3 expression vector encoding human FLAG-tagged PKGIα (ref. [41]) underwent site-directed mutagenesis to generate constructs for untagged WT, C42S, M438G and C42S/M438G PKGIα. Mutations were introduced using the QuikChange II Site-Directed Mutagenesis Kit (Agilent) according to the manufacturer's instructions. Expression and purification of the PKGIα mutants was performed according to a published method[42] as follows: suspension FreeStyle 293-F cells (ThermoFisher Scientific) were transfected with the appropriate PKGIα construct using the stable cationic polymer polyethyleneimine (PEI) as a transfection reagent. After ∼72 h cells were harvested by centrifugation (400g; room temperature; 15 min), re-suspended in ice cold lysis buffer (25 mM sodium phosphate buffer pH 6.8; 10 mM ethylenediaminetetraacetic acid (EDTA); 100 mM NaCl; 10 mM benzamidine hydrochloride; and 10 mM dithiothreitol (DTT)) and frozen in liquid N2. Cells were lysed by three freeze (liquid N2)-thaw (37 °C) cycles and the lysate was clarified by centrifugation at 140,000g and 4 °C for 30 min. […] Protein concentration was determined by Pierce BCA assay (ThermoFisher) and enzyme activity was confirmed using the Omnia kinase assay kit (ThermoFisher).

For assay [1] the following is noted: 37 °C; value taken for Ca2+ calibration, no reference given; read-out: Kd of Fluo-3; cited from earlier work. On the procedure: To measure cytosolic Ca^2+ levels, cells were loaded with the acetoxymethyl (AM) ester form Fluo-3 (Molecular Probes) and excited continuously at 488 nm. Emitted fluorescence was measured with a 515 nm long-pass filter. Raw fluorescent signals were calibrated off-line as per equation (1). […] Background fluorescence was subtracted from all raw signals. Custom-written Excel routines were used to measure Ca^2+ transient amplitude, diastolic Ca^2+ levels, rate of decay of the Ca^2+ transient and SR Ca^2+ content. SR Ca^2+ content was estimated fr ...

The subject of a further assay is another kinase. Conditions: ref www.nature.com/ncomms/2015/150810/ncomms8920; cited from earlier work. From the text:
page 15: reasons explained, are complicated to interpret and they are not anticipated to be as effective as many would envisage. […] Now high profile preclinical studies show ...

For another assay, the system named is PKGIα disulfide dimer. The settings on record: HEK cells, murine aortic rings or mesenteric blood vessels; ref Burgoyne et al. Hypertension 60, 1301-1308 (2012); Rudyk et al. Circulation 126, 287-295 (2012); cited from earlier work.
The subject of assay [2] is PKGIα Cys42 disulfide bond. The settings on record: ref [3], [4]; cited from earlier work.
The test system of assay [3] is PKGIα (analogue-sensitive C42S/M438G), cGMP-activated. As to the kind of experiment: Chemical genetic phosphoproteomic screen, cGMP-activated PKGIα C42S/M438G versus unactivated control. The class given is biochemical, human PKGIα; substrates in rat heart homogenate. Conditions: cGMP activation; of 29 substrates with significant change. The source says:
We employed a chemical genetic method[18] to identify direct substrates of cGMP-activated PKGIα and disulfide bond-activated PKGIα in heart tissue. This method involves mutation of the ATP binding-site of the kinase of interest so that it can accept a ‘bulky' N6-alkylated ATP analogue for example, N6^−phenylethyl ATP. An oxygen atom on the γ phosphate is also replaced with a sulfur atom—giving an N6-alkylated ATPγS analogue—so that the mutant kinase catalyses the transfer of a thiophosphate group (–PO3S^3−) to its substrates instead of a phosphate. The thiophosphate group is nucleophilic, providing a basis for substrates of the analogue-sensitive kinase to be purified by a ‘covalent capture' protocol. LC–MS/MS allows identification of the substrate and localization of the phosphorylation site. Thiophosphorylated proteins can also be detected with a thiophosphate ester-specific antibody. Analogue-sensitive mutants of PKGIα and PKGIα C42S (which cannot form the activating intermolecular disulfide bond) were generated by mutating Met438 in the ATP-binding domain to Gly. This mutation was chosen based on a previous study where an analogue-sensitive mutant of the catalytic subunit of PKA—which shares sequence homology with PKGIα—was engineered. Detailed protocols are given below.
A pCDNA3 expression vector encoding human FLAG-tagged PKGIα (ref. [41]) underwent site-directed mutagenesis to generate constructs for untagged WT, C42S, M438G and C42S/M438G PKGIα. Mutations were introduced using the QuikChange II Site-Directed Mutagenesis Kit (Agilent) according to the manufacturer's instructions. Expression and purification of the PKGIα mutants was performed according to a published method[42] as follows: suspension FreeStyle 293-F cells (ThermoFisher Scientific) were transfected with the appropriate PKGIα construct using the stable cationic polymer polyethyleneimine (PEI) as a transfection reagent. After ∼72 h cells were harvested by centrifugation (400g; room temperature; 15 min), re-suspended in ice cold lysis buffer (25 mM sodium phosphate buffer pH 6.8; 10 mM ethylenediaminetetraacetic acid (EDTA); 100 mM NaCl; 10 mM benzamidine hydrochloride; and 10 mM dithiothreitol (DTT)) and frozen in liquid N2. Cells were lysed by three freeze (liquid N2)-thaw (37 °C) cycles and the lysate was clarified by centrifugation at 140,000g and 4 °C for 30 min. The soluble protein fraction was loaded onto a pre-equilibrated 8-(2-aminoethylamino)adenosine-3′, 5′-cyclic monophosphate column (8-AEA-cAMP agarose; BioLog, Germany) followed by washing with 20 column volumes of lysis buffer. The column was further washed with lysis buffer +3 M NaCl (5 column volumes) and PKGIα was then eluted with lysis buffer +150 mM NaCl and 500 μM cAMP. Removal of cAMP and buffer exchange was achieved by extensive dialysis against 25 mM sodium phosphate buffer pH 6.8, 2 mM EDTA and 100 mM NaCl. For ITC analysis, WT PKGIα was incubated with 10 mM lipoic acid for 2 h on ice to obtain ∼100% disulfide dimer (confirmed by SDS-PAGE). Oxidized WT or C42S PKGIα was further purified by size exclusion chromatography using a HiLoad 16/600 Superdex 200 pg column (GE Healthcare) with 50 mM sodium phosphate buffer pH 7.4 and 100 mM NaCl. Proteins were concentrated using Amicon Ultra centrifugal filter devices (Merck Millipore). DTT was absent in storage buffers so that the activating disulfide bond would not be reduced and so that the PKGIα M438G mutant would be oxidized to disulfide dimer in the presence of air (confirmed by SDS-PAGE). Protein concentration was determined by Pierce BCA assay (ThermoFisher) and enzyme activity was confirmed using the Omnia kinase assay kit (ThermoFisher).
Male Wistar rats (9–10 weeks; body weight 300–330 g) were euthanized by intraperitoneal injection of sodium pentobarbitone (200 mg kg^−1) with heparin (500 USP units). […]

Assay [4] has as its system PKGIα (VASP phosphorylation) in mouse embryonic fibroblasts. The settings on record: ref Muller et al. Free Radic Biol Med 53, 1574-1583 (2012); cited from earlier work. The source says:
This transgenic model was developed by the Sadoshima lab (Newark, USA) and the data are included in a PhD thesis (2015) by Daniel Stubbert from this lab. We have amended the manuscript so that it now states that the ...

The test system of another assay is PLN threonine 17. Conditions: cardiac myocytes exposed to hydrogen peroxide; no reference given; cited from earlier work.

Structures are written as SMILES.

Turning to `O=C(O)CCCC[C@@H]1CCSS1` (racemic) [lipoic acid], the disulfide dimer formed in the assay with WT PKGIα is roughly 100%.

By Kd is commonly meant the constant that tells how readily two partners part at equilibrium. Consider `Cc1ccc(N(CC(=O)O)CC(=O)O)c(OCCOc2cc(-c3c4cc(Cl)c(=O)cc-4oc4cc(O)c(Cl)cc34)ccc2N(CC(=O)O)CC(=O)O)c1` [Fluo-3], for which the equilibrium dissociation constant (Kd) in assay [1] is 864 nM.

For the compound `CC(=O)N[C@@H](CS)C(=O)O` [NAC, N-acetylcysteine], the “effect on oxidation of another kinase” value with another kinase is reported as “promoted the oxidation of that target”.

With `CC(=O)OC[C@H]1O[C@@H]([S-])[C@H](OC(C)=O)[C@@H](OC(C)=O)[C@@H]1OC(C)=O.CCP(CC)CC.[Au+]` [auranofin], in the assay with PKGIα disulfide dimer, the “PKGIα disulfide dimer upon treatment” value is recorded as “accumulation of PKGIα disulfide dimer”.

`Nc1nc2c(ncn2[C@@H]2O[C@@H]3COP(=O)(O)O[C@H]3[C@H]2O)c(=O)[nH]1` [cGMP, cyclic guanosine monophosphate, reference compound]: the “effect on formation of the Cys42 intermolecular disulfide bond” value in assay [2] was “inhibits formation of the Cys42 intermolecular disulfide bond”. The “number of proteins with significantly increased phosphorylation when PKGIα was activated” value in assay [3] turned out to be 28.

In the case of `OO` [hydrogen peroxide], in assay [4], the “effect of pre-oxidation of PKGIα on its activation by cGMP” value was “slightly attenuated”. Also, the “PLN threonine 17 phosphorylation” value with PLN threonine 17 is “will become phosphorylated”.
